Results on 37 compounds are retold here after article PMC11110763, “Carltonine-derived compounds for targeted butyrylcholinesterase inhibition” (RSC Medicinal Chemistry, 2024).

Like-named read-outs stand apart in the source and are kept apart here.

Data set [1] is described as follows: PAMPA assay (BBB penetration). Particulars: for BBB penetration estimation CNS (+/−): class from PAMPA Pe; for Pe ± SEM: PAMPA, PBS pH 7.4, n = 3.
Excerpt: Furthermore, we experimentally determined the ability of 12 highlighted hBChE inhibitors to pass through the BBB using a parallel artificial membrane permeation assay (PAMPA) as described by Di et al.[65] […] The methodology was validated on a set of compounds (positive and negative controls) recognized for their activity in the CNS (Table 3).
In this study, it has been used as a non-cell-based in vitro assay carried out in a coated 96-well membrane filter. The filter membrane of the donor plate was coated with PBL (polar brain lipid, Avanti, USA) in dodecane (4 μl of 20 mg ml^−1 PBL in dodecane) and the acceptor well was filled with 300 μl of PBS (pH 7.4; VA). The tested compounds were dissolved first in DMSO and subsequently diluted with PBS (pH 7.4) to final concentrations of 50–100 μM in the donor wells. […] About 300 μL of the donor solution was added to the donor wells (VD) and the donor filter plate was carefully put on the acceptor plate so that the coated membrane was “in touch” with both the donor solution and acceptor buffer. In principle, the test compound diffused from the donor well through the lipid membrane (area = 0.28 cm^2) to the acceptor well. The concentration of the drug in both the donor and acceptor wells was assessed after 3, 4, 5, and 6 h of incubation in quadruplicate using the UV plate reader Spark (Tecan Group Ltd, Switzerland) at the maximum absorption wavelength of each compound. Besides that, a solution of theoretical compound concentration, simulating the equilibrium state established if the membrane were ideally permeable, was prepared and assessed as well. The concentration of the compounds in the donor and acceptor wells and equilibrium concentration were calculated from the standard curve and expressed as the permeability (Pe) according the equation: [drawing 10] where [drawing 11]
Data set [2] has as its target T1, recombinant BChE (hBChE, E.C. 3.1.1.8) (Homo sapiens, UniProt P06276).
T1 construct: purchased Sigma-Aldrich, Prague, Czech Republic
The data set can be described thus: biochemical. In kind it is biochemical. The note with it: for IC50: mean ± SEM of three independent measurements, each in triplicate; for inhibition at 10 µM: read-out: % inhibition of hBChE ± SEM.
Description: The activities of hAChE and hBChE were determined using a modified Ellman's method, as described in ref. [56] and [62] against recombinant AChE (hAChE, E.C. 3.1.1.7) and recombinant BChE (hBChE, E.C. 3.1.1.8), both of which were purchased from Sigma-Aldrich, Prague, Czech Republic. […] The other compounds used, including the phosphate buffer solution (PBS, pH = 7.4), 5,5′-dithio-bis(2-nitrobenzoic) acid (Ellman's reagent, DTNB), acetylthiocholine (ATChI), and butyrylthiocholine (BTChI), were commercially available and purchased from Sigma-Aldrich in Prague, Czech Republic. In brief, the corresponding enzyme (8.3 μL), 5 mM DTNB (283 μL), and the sample dilution in dimethyl sulfoxide (DMSO) at various concentrations (8.3 μL) were added to 96-well microplates (BRAND GMBH + CO KG, Wertheim, Germany) and pre-incubated for 5 minutes in the assay medium. The reaction was initiated by adding 10 mM substrate (ATChI or BTChI, 33.3 μL). […] Each measurement was repeated in triplicate. The percentage of inhibition was calculated using the following formula: [drawing 8] where ΔABl represents the increase in absorbance of the blank sample, and ΔASa represents the increase in absorbance of the measured sample. […] Microsoft Excel (Redmond, WA, USA) and GraphPad Prism version 7 for Windows (GraphPad Software, San Diego, CA, USA) were used for the statistical data evaluation.

The mark [3] stands for this setting: tested at 10 μM compound concentration.

T1 sequence (P06276 29-602): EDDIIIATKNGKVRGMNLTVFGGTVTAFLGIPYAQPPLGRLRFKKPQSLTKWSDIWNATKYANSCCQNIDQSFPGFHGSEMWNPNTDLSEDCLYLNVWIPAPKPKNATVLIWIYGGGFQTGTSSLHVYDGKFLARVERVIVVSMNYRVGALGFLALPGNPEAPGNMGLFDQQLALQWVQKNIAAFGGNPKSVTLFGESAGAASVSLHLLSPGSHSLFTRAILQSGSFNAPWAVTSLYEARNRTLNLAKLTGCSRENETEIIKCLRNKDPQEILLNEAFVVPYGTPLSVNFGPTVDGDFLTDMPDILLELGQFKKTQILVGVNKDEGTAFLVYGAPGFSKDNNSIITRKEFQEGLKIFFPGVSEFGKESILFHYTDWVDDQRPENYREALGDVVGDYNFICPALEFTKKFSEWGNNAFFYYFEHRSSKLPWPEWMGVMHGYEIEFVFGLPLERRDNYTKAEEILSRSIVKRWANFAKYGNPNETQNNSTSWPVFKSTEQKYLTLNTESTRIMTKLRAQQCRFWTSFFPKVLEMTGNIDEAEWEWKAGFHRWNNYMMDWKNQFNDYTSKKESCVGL

Consider `NS(=O)(=O)c1cc2c(cc1Cl)N=CNS2(=O)=O` [Chlorothiazide, reference compound], for which the “BBB penetration estimation CNS (+/−)” value in data set [1] is “CNS − (CNS (−) (low BBB permeation predicted): Pe (×10^−6 cm s^−1) < 2.0)”.

One may read the IC50 as the concentration needed to halve the response being measured. As usually defined, the inhibition is the change of the read-out against control, counted positive when it falls. On to `COc1cccc(CCNCc2cccc(OCc3ccccc3)c2)c1` [Compound 6, {[3-(Benzyloxy)phenyl]methyl}[2-(3-methoxyphenyl)ethyl]amine], for which the 50% inhibitory concentration (IC50) in data set [2] was determined as 2700 ± 200 nM. For the same compound, in data set [2] (setting [3]), the inhibition at 10 µM was determined as 78 ± 0.4%.

With `COc1ccc(CCNCc2cccc(OCc3ccccc3)c2)cc1` [Compound 7, {[3-(Benzyloxy)phenyl]methyl}[2-(4-methoxyphenyl)ethyl]amine], the IC50 in data set [2] was determined as 4800 ± 200 nM. The inhibition at 10 µM in data set [2] (setting [3]) stood at 73 ± 0.6%.

Take `C=CCN(CCc1ccc(O)cc1)Cc1cccc(OCc2ccccc2)c1` [Compound 8, 4-[2-({[3-(Benzyloxy)phenyl]methyl}(prop-2-en-1-yl)amino)ethyl]phenol]: in data set [2], the IC50 was 600 ± 100 nM. Also, the inhibition at 10 µM in data set [2] (setting [3]) was 92 ± 0.5%.

With `C=CCOc1ccc(CCN(CC=C)Cc2cccc(OCc3ccccc3)c2)cc1` [Compound 9, {[3-(Benzyloxy)phenyl]methyl}(prop-2-en-1-yl){2-[4-(prop-2-en-1-yloxy)phenyl]ethyl}amine], in data set [2], the “hBChE inhibitory activity (in words)” value was “complete loss of hBChE inhibitory activity” and the 50% inhibitory concentration (IC50) was more than 10000 nM. Besides, the inhibition at 10 µM in data set [2] (setting [3]) was found to be 46 ± 1.7%.

Regarding `C=CCOc1ccc(CCNCc2cccc(OCc3ccccc3)c2)cc1` [Compound 12, {[3-(Benzyloxy)phenyl]methyl}({2-[4-(prop-2-en-1-yloxy)phenyl]ethyl})amine], the IC50 in data set [2] came out at 4000 ± 1000 nM. Also, in data set [2] (setting [3]), the inhibition at 10 µM stood at 75.5 ± 0.5%.

For the compound `Clc1cccc(NCc2cccc(OCc3ccccc3)c2)c1` [Compound 13, N-{[3-(Benzyloxy)phenyl]methyl}-3-chloroaniline], in data set [2], the “hBChE inhibitory activity (in words)” value is “completely inactive” and the IC50 was more than 10000 nM. The inhibition at 10 µM in data set [2] (setting [3]) came to 7.5 ± 0.4%.

As for `c1ccc(CNCc2cccc(OCc3ccccc3)c2)cc1` [Compound 14, Benzyl({[3-(benzyloxy)phenyl]methyl})amine], in data set [2], the IC50 was 500 ± 100 nM. In data set [2] (setting [3]), the inhibition at 10 µM was found to be 92 ± 0.3%. In data set [1], the “Pe ± SEM” value was 9.8 ± 2.9 ×10^−6 cm s^−1 and the “BBB penetration estimation CNS (+/−)” value is “CNS + (CNS (+) (high BBB permeation predicted): Pe (×10^−6 cm s^−1) > 4.0)”.

Take `COc1ccc(CNCc2cccc(OCc3ccccc3)c2)cc1OC` [Compound 15, {[3-(Benzyloxy)phenyl]methyl}[(3,4-dimethoxyphenyl)methyl]amine]: in data set [2], the “hBChE inhibitory activity (in words)” value is “completely inactive” and the half-maximal inhibitory concentration (IC50) is more than 10000 nM. Besides, the inhibition at 10 µM in data set [2] (setting [3]) is 49 ± 1.4%.

As for `c1ccc(CCNCc2cccc(OCc3ccccc3)c2)cc1` [Compound 16, {[3-(Benzyloxy)phenyl]methyl}(2-phenylethyl)amine], the half-maximal inhibitory concentration (IC50) in data set [2] was 600 ± 100 nM. In addition, in data set [2] (setting [3]), the inhibition at 10 µM amounted to 91 ± 0.9%.

Turning to `c1ccc(CCCNCc2cccc(OCc3ccccc3)c2)cc1` [Compound 17, {[3-(Benzyloxy)phenyl]methyl}(3-phenylpropyl)amine], in data set [2], the IC50 amounted to 600 ± 100 nM. Moreover, in data set [2] (setting [3]), the inhibition at 10 µM is 89 ± 1.8%.

As for `CCN(Cc1ccccc1)Cc1cccc(OCc2ccccc2)c1` [Compound 19, Benzyl({[3-(benzyloxy)phenyl]methyl})ethylamine], the IC50 in data set [2] is 500 ± 100 nM. Further, in data set [2] (setting [3]), the inhibition at 10 µM amounted to 88 ± 1.1%. Further, in data set [1], the “Pe ± SEM” value is recorded as 36 ± 14 ×10^−6 cm s^−1 and the “BBB penetration estimation CNS (+/−)” value is reported as “CNS + (CNS (+) (high BBB permeation predicted): Pe (×10^−6 cm s^−1) > 4.0)”.

As for `C=CCN(Cc1ccccc1)Cc1cccc(OCc2ccccc2)c1` [Compound 20, Benzyl({[3-(benzyloxy)phenyl]methyl})(prop-2-en-1-yl)amine], the half-inhibitory concentration (IC50) in data set [2] was more than 10000 nM. For the same compound, the inhibition at 10 µM in data set [2] (setting [3]) turned out to be 36 ± 0.8%.

Take `CCN(CCc1ccccc1)Cc1cccc(OCc2ccccc2)c1` [Compound 21, {[3-(Benzyloxy)phenyl]methyl}(ethyl)(2-phenylethyl)amine]: in data set [2], the IC50 came out at 400 ± 100 nM. For the same compound, in data set [2] (setting [3]), the inhibition at 10 µM was 91 ± 0.4%. Also, in data set [1], the “Pe ± SEM” value is 21.0 ± 0.6 ×10^−6 cm s^−1 and the “BBB penetration estimation CNS (+/−)” value is given as “CNS + (CNS (+) (high BBB permeation predicted): Pe (×10^−6 cm s^−1) > 4.0)”.

In the case of `CCCN(CCc1ccccc1)Cc1cccc(OCc2ccccc2)c1` [Compound 22, {[3-(Benzyloxy)phenyl]methyl}(2-phenylethyl)propylamine], the IC50 in data set [2] is 700 ± 100 nM. Besides, in data set [2] (setting [3]), the inhibition at 10 µM amounted to 81 ± 0.8%.

As to `C=CCN(CCc1ccccc1)Cc1cccc(OCc2ccccc2)c1` [Compound 23, {[3-(Benzyloxy)phenyl]methyl}(2-phenylethyl)(prop-2-en-1-yl)amine], in data set [2], the IC50 stood at 7700 ± 1700 nM. Also, the inhibition at 10 µM in data set [2] (setting [3]) was 60 ± 0.4%.

With `CCN(CCCc1ccccc1)Cc1cccc(OCc2ccccc2)c1` [Compound 24, {[3-(Benzyloxy)phenyl]methyl}(ethyl)(3-phenylpropyl)amine], the IC50 in data set [2] was 600 ± 100 nM. Moreover, the inhibition at 10 µM in data set [2] (setting [3]) amounted to 94 ± 0.6%.

As to `CCCN(CCCc1ccccc1)Cc1cccc(OCc2ccccc2)c1` [Compound 25, {[3-(Benzyloxy)phenyl]methyl}(3-phenylpropyl)propylamine], the IC50 in data set [2] was found to be 540 ± 30 nM. Moreover, in data set [2] (setting [3]), the inhibition at 10 µM was 89 ± 0.8%. Further, in data set [1], the “Pe ± SEM” value is given as 33.0 ± 6.8 ×10^−6 cm s^−1 and the “BBB penetration estimation CNS (+/−)” value is “CNS + (CNS (+) (high BBB permeation predicted): Pe (×10^−6 cm s^−1) > 4.0)”.

For the compound `C=CCN(CCCc1ccccc1)Cc1cccc(OCc2ccccc2)c1` [Compound 26, {[3-(Benzyloxy)phenyl]methyl}(3-phenylpropyl)(prop-2-en-1-yl)amine], the IC50 in data set [2] was 1200 ± 300 nM. For the same compound, the inhibition at 10 µM in data set [2] (setting [3]) was 76 ± 1.7%.

In the case of `COc1ccccc1CCNCc1ccc(OCc2ccccc2)cc1` [Compound 29, {[4-(Benzyloxy)phenyl]methyl}[2-(2-methoxyphenyl)ethyl]amine], the half-inhibitory concentration (IC50) in data set [2] was 800 ± 200 nM. In addition, in data set [2] (setting [3]), the inhibition at 10 µM was 89 ± 0.9%.

`COc1cccc(CCNCc2ccc(OCc3ccccc3)cc2)c1` [Compound 30, {[4-(Benzyloxy)phenyl]methyl}[2-(3-methoxyphenyl)ethyl]amine]: the IC50 in data set [2] is 4900 ± 1000 nM. In addition, the inhibition at 10 µM in data set [2] (setting [3]) turned out to be 66 ± 0.1%.

On to `COc1ccc(CCNCc2ccc(OCc3ccccc3)cc2)cc1` [Compound 31, {[4-(Benzyloxy)phenyl]methyl}[2-(4-methoxyphenyl)ethyl]amine], for which the half-maximal inhibitory concentration (IC50) in data set [2] came out at 3000 ± 600 nM. In data set [2] (setting [3]), the inhibition at 10 µM was found to be 93 ± 0.2%.

Consider `Clc1ccc(CCNCc2ccc(OCc3ccccc3)cc2)cc1` [Compound 32, {[4-(Benzyloxy)phenyl]methyl}[2-(4-chlorophenyl)ethyl]amine], for which the IC50 in data set [2] came to 700 ± 200 nM. Moreover, the inhibition at 10 µM in data set [2] (setting [3]) was 85 ± 1%.

As to `CCCOc1ccc(CCN(CCC)Cc2ccc(OCc3ccccc3)cc2)cc1` [Compound 34, {[4-(Benzyloxy)phenyl]methyl}[2-(4-propoxyphenyl)ethyl]propylamine], in data set [2], the “hBChE inhibitory activity (in words)” value was “complete loss of hBChE inhibitory activity” and the half-maximal inhibitory concentration (IC50) was more than 10000 nM. For the same compound, the inhibition at 10 µM in data set [2] (setting [3]) worked out at 30 ± 0.9%.

Turning to `c1ccc(CNCc2ccc(OCc3ccccc3)cc2)cc1` [Compound 35, Benzyl({[4-(benzyloxy)phenyl]methyl})amine], in data set [2], the IC50 was determined as 2800 ± 600 nM. In data set [2] (setting [3]), the inhibition at 10 µM was 60 ± 0.1%.

As for `c1ccc(COc2ccc(CNCc3ccccn3)cc2)cc1` [Compound 36, {[4-(Benzyloxy)phenyl]methyl}[(pyridin-2-yl)methyl]amine], the IC50 in data set [2] was more than 10000 nM. In addition, the inhibition at 10 µM in data set [2] (setting [3]) turned out to be 18 ± 0.5%.

As to `c1ccc(CCNCc2ccc(OCc3ccccc3)cc2)cc1` [Compound 37, {[4-(Benzyloxy)phenyl]methyl}(2-phenylethyl)amine], in data set [2], the half-inhibitory concentration (IC50) was found to be 2000 ± 300 nM. Also, the inhibition at 10 µM in data set [2] (setting [3]) was determined as 81 ± 1.4%.

On to `c1ccc(COc2ccc(CNCCc3ccccn3)cc2)cc1` [Compound 38, {[4-(Benzyloxy)phenyl]methyl}[2-(pyridin-2-yl)ethyl]amine], for which the IC50 in data set [2] was more than 10000 nM. Also, the inhibition at 10 µM in data set [2] (setting [3]) was found to be 23 ± 1%.

Regarding `c1ccc(CCCNCc2ccc(OCc3ccccc3)cc2)cc1` [Compound 39, {[4-(Benzyloxy)phenyl]methyl}(3-phenylpropyl)amine], the IC50 in data set [2] worked out at 700 ± 100 nM. Besides, the inhibition at 10 µM in data set [2] (setting [3]) was 90 ± 0.3%.

As for `c1ccc(CCCCNCc2ccc(OCc3ccccc3)cc2)cc1` [Compound 40, {[4-(Benzyloxy)phenyl]methyl}(4-phenylbutyl)amine], in data set [2], the IC50 came out at 800 ± 100 nM. In addition, the inhibition at 10 µM in data set [2] (setting [3]) was 85 ± 0.6%.

In the case of `CC(CNCc1ccc(OCc2ccccc2)cc1)c1ccccc1` (stereo not shown) [Compound 41, {[4-(Benzyloxy)phenyl]methyl}(2-phenylpropyl)amine], in data set [2], the concentration for half-maximal inhibition (IC50) amounted to 1600 ± 100 nM. In addition, in data set [2] (setting [3]), the inhibition at 10 µM was 88 ± 1%.

`CCN(Cc1ccccc1)Cc1ccc(OCc2ccccc2)cc1` [Compound 43, Benzyl({[4-(benzyloxy)phenyl]methyl})ethylamine]: in data set [2], the IC50 is more than 10000 nM. In addition, in data set [2] (setting [3]), the inhibition at 10 µM turned out to be 50 ± 1.1%.

Consider `CCCN(Cc1ccccc1)Cc1ccc(OCc2ccccc2)cc1` [Compound 44, Benzyl({[4-(benzyloxy)phenyl]methyl})propylamine], for which, in data set [2], the IC50 is more than 10000 nM. Also, the inhibition at 10 µM in data set [2] (setting [3]) worked out at 18 ± 0.3%.

On to `CCCN(Cc1ccc(OCc2ccccc2)cc1)C(C)CCc1ccccc1` (stereo not shown) [Compound 47, {[4-(Benzyloxy)phenyl]methyl}(4-phenylbutan-2-yl)propylamine], for which, in data set [2], the half-maximal inhibitory concentration (IC50) turned out to be 1000 ± 300 nM. For the same compound, the inhibition at 10 µM in data set [2] (setting [3]) is 93 ± 0.2%.

As for `CNC(=O)Oc1ccc2c(c1)[C@]1(C)CCN(C)[C@@H]1N2C` [Eserine, reference compound], the inhibition at 10 µM in data set [2] amounted to 96 ± 0.3%.

Regarding `COc1ccc2c3c1O[C@H]1C[C@@H](O)C=C[C@@]31CCN(C)C2` [Galantamine, reference compound], the inhibition at 10 µM in data set [2] came out at 29 ± 3.5%.

For `Nc1c2c(nc3ccccc13)CCCC2` [Tacrine, reference compound], the “BBB penetration estimation CNS (+/−)” value in data set [1] is listed as “CNS + (CNS (+) (high BBB permeation predicted): Pe (×10^−6 cm s^−1) > 4.0)”.
